Where two headings read alike, the source gives them in different places.
Legend:
[1] = system: Tetranychus telarius (red spider mites, adults); assay: Pest toxicity test; assay type: in vivo; conditions: 0.1% by weight; French bean; 3 days
[2] = system: Tetranychus telarius (red spider mites, eggs); assay: Pest toxicity test; assay type: in vivo; conditions: 0.1% by weight; French bean; 3 days
Aphis fabae = assay: Pest toxicity test; assay type: in vivo; conditions: 0.1% by weight; broad bean; 2 days
Megoura viceae = assay: Pest toxicity test; assay type: in vivo; conditions: 0.1% by weight; broad bean; 2 days
[3] = system: Aedes aegypti (mosquito larvae); assay: Pest toxicity test; assay type: in vivo; conditions: for Mortality grading (kill): 0.01% by weight, water, 1 day; for abnormal growth effects in larva of mosquitos: in vivo
[4] = system: Aedes aegypti (mosquito adults); assay: Pest toxicity test; assay type: in vivo; conditions: 0.01% by weight; plywood; 1 day
[5] = system: Musca domestica (houseflies); assay: Pest toxicity test, contact test; assay type: in vivo; conditions: 0.1% by weight; milk/sugar; 2 days; flies sprayed directly
[6] = system: Plutella maculipennis (diamond back moth larvae); assay: Pest toxicity test; assay type: in vivo
[7] = system: Phaedon cochleariae (mustard beetles); assay: Pest toxicity test; assay type: in vivo
[8] = system: Agrobacterium tumifaciens; assay: Antibacterial agar test (B1); assay type: cell-based; conditions: 50 ppm; 5 days
[9] = system: Corynebacterium michiganense; assay: Antibacterial agar test (B2); assay type: cell-based; conditions: 50 ppm; 5 days
Experimental: (§1) This Example illustrates the activity of compounds used as the active ingredients of compositions according to the invention against a variety of plant bacterial diseases and fungal post-harvest saprophytic diseases. In a test for such activity, 5 milligrams of the compound to be tested was dissolved or suspended in 10 ml. of acetone and enough of this solution or suspension was added to 18 ml. of nutrient agar (for the bacterial diseases) or 16 ml. of 2% malt agar (for the fungal diseases) to give a final concentration of 50 parts per million of the compound under test. A streptomycin preparation (2 ml. containing 100 units per ml.) was added to the malt agar to prevent bacterial contamination of the fungal tests.
(§2) The agar preparations were dried overnight in Petri dishes and inoculated the following morning with the bacterial or fungal diseases using a multipoint inoculator. The antibacterial activity was assessed after 5 days and the antifungal activity after 6 days. The results of the tests are set out in Table 16 (anti bacterial activity) and Table 17 (antifungal activity). The results are graded as in Example 1 above.

Xanthomonas malvacearum = assay: Antibacterial agar test (B3); assay type: cell-based; conditions: 50 ppm; 5 days
Experimental: as §1, §2

Erwinia carotovora = assay: Antibacterial agar test (B4); assay type: cell-based; conditions: 50 ppm; 5 days
Xanthomonas oryzae = assay type: cell-based; conditions: 50 ppm; 5 days
Pseudomonas syringae = assay: Antibacterial agar test (B6); assay type: cell-based; conditions: 50 ppm; 5 days
Streptomyces scabies = assay: Antibacterial agar test (B7); assay type: cell-based; conditions: 50 ppm; 5 days
[10] = system: Puccinia recondita (wheat); assay: Fungicidal test against foliar disease A (foliage spray plus soil drench); assay type: in vivo; conditions: 10 days
[11] = system: Plasmopara viticola (vine); assay: Fungicidal test against foliar disease C (foliage spray plus soil drench); assay type: in vivo; conditions: 10 days
[12] = system: Piricularia oryzae (rice); assay type: in vivo; conditions: 7 days
[13] = system: Pieris brassicae (cabbage white caterpillars); assay: Pest toxicity test; assay type: in vivo; conditions: 0.1% by weight, 2 days
Uncinula necator (vine) = assay: Fungicidal test against foliar disease D (foliage spray plus soil drench); assay type: in vivo; conditions: 10 days
[14] = system: Phytophthora infestans (tomato); assay type: in vivo; conditions: 50 ppm spray + 200 ppm soil drench; 3 days
[15] = system: Agriolimax reticulatus (slugs); assay: Molluscicidal activity test; assay type: in vivo, Agriolimax reticulatus (Mull); conditions: pellet with 4% by weight; 6 days; 10°C
Experimental: A weighed sample of the compound under test was dissolved in 0.5 c.c. of an ethanol and acetone mixture 50:50 v/v). The solution was diluted with 0.5 cc water and poured onto a calf feeding pellet in a glass Petri dish. The pellet was then air dried for 24 hours. The weight of compound used was chosen so that the dried pellet contained 4% by weight of the active ingredient. Two replicates each consisting of a plastic Petri dish containing a pellet, 2 slugs, and a moistened filter paper to maintain a high relative humidity were used in each test. The dishes were left in a cold room (10°C.) After 6 days the kill was assessed.
The slugs used were Agriolimax reticulatus (Mull), and they had been starved for 24 hours before the commencement of the tests.

[16] = 0.1% by weight, mustard/paper, 2 days
[17] = 50 ppm spray + 200 ppm soil drench

| SMILES | Mortality grading (kill) [1] | Mortality grading (kill) [2] | Mortality grading (kill) (Aphis fabae) | Mortality grading (kill) (Megoura viceae) | Mortality grading (kill) [3] | abnormal growth effects in larva of mosquitos [3] | Mortality grading (kill) [4] | Mortality grading (kill), contact test [5] | Mortality grading (kill) ([6]; in vivo) | Mortality grading (kill) ([7]; in vivo) | Antibacterial activity grading B1 [8] | Antibacterial activity grading B2 [9] | Antibacterial activity grading B3 (Xanthomonas malvacearum) | Antibacterial activity grading B4 (Erwinia carotovora) | Antibacterial activity grading B5 (Xanthomonas oryzae) | Antibacterial activity grading B6 (Pseudomonas syringae) | Antibacterial activity grading B7 (Streptomyces scabies) | Mortality grading (kill) [13] | other results |
| --- | --- | --- | --- | --- | --- | --- | --- | --- | --- | --- | --- | --- | --- | --- | --- | --- | --- | --- | --- |
| O=[N+]([O-])c1ccc(Nc2c(Cl)c(F)nc(F)c2Cl)c([N+](=O)[O-])c1 [Compound 1, 3,5-dichloro-2,6-difluoro-4(2,4-dinitroanilinopyridine] | 3 (3 represents over 90% kill) | 0 (O represents less than 30% kill) | 3 (3 represents over 90% kill) | 3 (3 represents over 90% kill) | 0 (O represents less than 30% kill) | abnormal growth effects | 2 (2 represents 60 - 90% kill) | 0 (O represents less than 30% kill) | 0 (key: O represents less than 30% kill; 1 represents 30 - 49% kill; 2 represents 60 - 90% kill; 3 represents over 90% kill; C indicates a chemosterilant effect.; A indicates an antifeeding effect.) | 0 (key: O represents less than 30% kill; 1 represents 30 - 49% kill; 2 represents 60 - 90% kill; 3 represents over 90% kill; C indicates a chemosterilant effect.; A indicates an antifeeding effect.) | 3 (0 to 5) | 3 (0 to 5) | 3 (0 to 5) | 3 (0 to 5) | 3 (0 to 5) | 3 (0 to 5) | 3 (0 to 5) | – | – |
| Fc1nc(F)c(Cl)c(Nc2c(F)c(F)c(F)c3c(F)c(F)c(F)c(F)c23)c1Cl [Compound 20, 3,5-Dichloro-2,6-difluoro-4(1-heptafluoronaphthylamino)pyridine] | 3 (3 represents over 90% kill) | 3 (3 represents over 90% kill) | 2 (2 represents 60 - 90% kill) | 2 (2 represents 60 - 90% kill) | 1 (1 represents 30 - 49% kill) | – | 0 (O represents less than 30% kill) | 0 (O represents less than 30% kill) | 3 (key: O represents less than 30% kill; 1 represents 30 - 49% kill; 2 represents 60 - 90% kill; 3 represents over 90% kill; C indicates a chemosterilant effect.; A indicates an antifeeding effect.) | 0 (key: O represents less than 30% kill; 1 represents 30 - 49% kill; 2 represents 60 - 90% kill; 3 represents over 90% kill; C indicates a chemosterilant effect.; A indicates an antifeeding effect.) | 0 (61 to 100) | 3 (0 to 5) | 3 (0 to 5) | 2 (6 to 25) | 1 (26 to 60) | 2 (6 to 25) | 2 (6 to 25) | 0 (O represents less than 30% kill) | Amount of disease grading, disease A ([10]; 100 ppm spray and drench): 3 (0 to 5); Amount of disease grading, disease C ([11]; 100 ppm spray and drench): 3 (0 to 5); Amount of disease grading, disease E ([12]; 100 ppm spray and drench): 2 (6 to 25) |
| O=[N+]([O-])c1ccc(Nc2c(Cl)c(Cl)nc(Cl)c2Cl)c(C(F)(F)F)c1 [Compound 41, 4(4-Nitro-2-trifluoromethylanilino)-tetrachloropyridine] | 3 (3 represents over 90% kill) | 3 (3 represents over 90% kill) | 0 (O represents less than 30% kill) | 0 (O represents less than 30% kill) | 3 (3 represents over 90% kill) | – | 0 (O represents less than 30% kill) | 2 (2 represents 60 - 90% kill) | – | – | 3 (0 to 5) | 0 (61 to 100) | 2 (6 to 25) | 1 (26 to 60) | 1 (26 to 60) | 1 (26 to 60) | 0 (61 to 100) | 0 (O represents less than 30% kill) | Amount of disease grading, disease A (Table 4) ([10]; 100 ppm spray and drench): 0 (61 to 100); Amount of disease grading, disease C (Table 4) ([11]; 100 ppm spray and drench): 3 (0 to 5); Amount of disease grading, disease D (Table 4) (Uncinula necator (vine); 100 ppm spray and drench): 3 (0 to 5); Mortality grading (kill) [6, 16]: 1 (1 represents 30 - 49% kill); Mortality grading (kill) [7, 16]: 2 (2 represents 60 - 90% kill) |
| O=[N+]([O-])c1ccc(Nc2c(Cl)c(Cl)nc(Cl)c2Cl)c([N+](=O)[O-])c1 [Compound 8, Tetrachloro-4(2,4-dinitroanilino)pyridine] | 3 (3 represents over 90% kill) | 3 (3 represents over 90% kill) | 0 (O represents less than 30% kill) | 0 (O represents less than 30% kill) | 0 (O represents less than 30% kill) | abnormal growth effects | 0 (O represents less than 30% kill) | 0 (O represents less than 30% kill) | 0 (key: O represents less than 30% kill; 1 represents 30 - 49% kill; 2 represents 60 - 90% kill; 3 represents over 90% kill; C indicates a chemosterilant effect.; A indicates an antifeeding effect.) | 0 (key: O represents less than 30% kill; 1 represents 30 - 49% kill; 2 represents 60 - 90% kill; 3 represents over 90% kill; C indicates a chemosterilant effect.; A indicates an antifeeding effect.) | – | – | – | – | – | – | – | 0 (O represents less than 30% kill) | Amount of disease grading, disease A [10, 17]: 0 (61 to 100); Amount of disease grading, disease B [14]: 3 (0 to 5); Amount of disease grading, disease C [11, 17]: 3 (0 to 5); Amount of disease grading, disease D (Uncinula necator (vine); [17]): 0 (61 to 100); Amount of disease grading, disease E [12, 17]: 0 (61 to 100); % Kill of slugs [15]: 100% |

Reference: US3965109A, “Certain aryl amino pyridines” (priority 1971, dated 1976)
